Laboratory results: PubChem BioAssay (NCI)
Where “and” joins values, the source holds several entries; their conditions need not be identical. Equal values may be shown once.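 Where inhibition never reached the appropriate level, the endpoint shown equals the highest concentration tested. Otherwise, values were interpolated linearly from a five-concentration, 48-hour dose response in 96-well plates. The concentration for 50% growth inhibition is given as GI50. TGI denotes the concentration required for complete inhibition of growth.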

What was measured:
Assay in all cases: NCI tumour cell line growth inhibition, 48 h
M14 melanoma = tested on: M14 melanoma
MDA-MB-435 = tested on: MDA-MB-435
SN12C renal = tested on: SN12C renal
SW-620 colon = tested on: SW-620 colon
K-562 leukemia = tested on: K-562 leukemia
HCT-15 colon = tested on: HCT-15 colon
ACHN renal = tested on: ACHN renal
SK-MEL-5 melanoma = tested on: SK-MEL-5 melanoma
HL-60(TB) leukemia = tested on: HL-60(TB) leukemia
CAKI-1 renal = tested on: CAKI-1 renal

SMILES	GI50 (M14 melanoma)	TGI (M14 melanoma)	GI50 (MDA-MB-435)	TGI (MDA-MB-435)	GI50 (SN12C renal)	TGI (SN12C renal)	GI50 (SW-620 colon)	TGI (SW-620 colon)	GI50 (K-562 leukemia)	TGI (K-562 leukemia)	GI50 (HCT-15 colon) [µM]	TGI (HCT-15 colon)	GI50 (ACHN renal)	TGI (ACHN renal)	GI50 (SK-MEL-5 melanoma)	TGI (SK-MEL-5 melanoma)	GI50 (HL-60(TB) leukemia)	TGI (HL-60(TB) leukemia)	GI50 (CAKI-1 renal) [µM]	TGI (CAKI-1 renal)
CCCc1n(Cc2ccc3ccccc3n2)cc[n+]1Cc1ccc2ccccc2c1	0.637 µM	2.76 µM	0.443 µM	2.17 µM	0.478 µM	3.51 µM	1.91 µM	11.7 µM	0.428 µM	8.27 µM	12	25.4 µM	4.08 µM	15.6 µM	0.466 µM	1.69 µM	0.312 µM	0.933 µM		
C=C(C)[C@@H]1CC[C@]2(CN)CC[C@]3(C)[C@H](CC[C@@H]4[C@@]5(C)CCC(N)[C@@](C)(CO)[C@@H]5CC[C@]43C)[C@@H]12 (stereo partly specified)	1.81 µM	3.32 µM	1.85 µM	3.46 µM	1.74 µM	3.24 µM	1.8 µM	3.62 µM	0.325 µM	1.06 µM	1.65	3.24 µM	1.86 µM	3.29 µM	1.72 µM	3.16 µM	1.29 µM	2.97 µM	1.76	3.2 µM
COc1ccc2c(c1)c(-c1ccc(-c3cn(C)c4ccc(OC)cc34)o1)cn2C	16.7 µM	> 100 µM	32.9 µM	> 100 µM	21.6 µM	> 100 µM	4.55 µM	16.7 µM	2.86 µM	> 100 µM	4.22	29.7 µM	3.74 µM	18.6 µM	10.4 µM	22.8 µM	1.98 µM	5.2 µM	17.1	> 100 µM
C[C@@]1(O)CCC[C@H]1n1c(=O)c(C(F)F)cc2cnc(NC3CCN(S(C)(=O)=O)CC3)nc21	1.75 µM	7.62 µM	1.4 µM	9.01 µM	2.66 µM	> 100 µM	0.0891 µM	6.46 µM	1.96 µM	> 100 µM	1.74	56.6 µM	1.37 µM	> 100 µM	1.15 µM	7.91 µM	1.14 µM	5.38 µM	3.45	> 100 µM
CC1(C)OC2COC(c3[nH]nc4c(=O)[nH]c(=O)[nH]c34)C2O1 (stereo unspecified)		> 100 µM		> 100 µM		> 100 µM		> 100 µM		> 100 µM		> 100 µM		> 100 µM		> 100 µM		> 100 µM		> 100 µM
CCCCCCC/C=C1\CCC(CN(C)C)C1=O (stereo unspecified)		23.6 µM		18.8 µM		17.5 µM		18 µM		9.53 µM		21.7 µM		31.6 µM		34 µM		9.09 µM		31.6 µM
CN(C)C1C(=O)C(C(N)=O)=C(O)C2(O)C(=O)C3=C(O)c4c(O)cccc4C(C)(O)C3CC12 (stereo unspecified)	46.1 µM and > 100 µM	> 100 µM	21 µM and > 100 µM	36.8 µM and > 100 µM	18.4 µM and > 100 µM	32.5 µM and > 100 µM	23.3 µM and > 100 µM	46.1 µM and > 100 µM	23.2 µM and > 100 µM	48.5 µM and > 100 µM		> 100 µM	39.9 µM and 82.7 µM	> 100 µM	22.4 µM and 56.5 µM	39.9 µM and > 100 µM	24.5 µM and 82.9 µM	53.2 µM and > 100 µM		> 100 µM
CN[C@H]1CC[C@]23C[C@]24CC[C@]2(C)[C@@H]([C@H](C)N(C)C)CC[C@@]2(C)[C@@H]4CC[C@H]3C1(C)C		37.2 µM		29.8 µM		29.1 µM		32.5 µM				25.8 µM		31 µM		29.4 µM		36.3 µM		45.9 µM
COC(=O)CCCNC(=O)C(=O)c1c(O)c(O)c(C(C)C)c2cc(C)c(-c3c(C)cc4c(C(C)C)c(O)c(O)c(C(=O)C(=O)NCCCC(=O)OC)c4c3O)c(O)c12	0.753 µM	2.31 µM	1.06 µM	5.85 µM	0.844 µM	6.85 µM	0.74 µM	5.52 µM	0.246 µM	6.88 µM	0.587	4.45 µM	0.21 µM	4.09 µM	1.24 µM	4.7 µM	0.931 µM	6.76 µM	1.51	> 32.5 µM
Cc1ccccc1C[P+](c1ccccc1)(c1ccccc1)c1ccccc1			0.938 µM	21.3 µM	2.42 µM	> 100 µM	2.33 µM	> 100 µM	0.786 µM	> 100 µM	27.9	> 100 µM	7.28 µM	> 100 µM	0.375 µM	1.58 µM	1.58 µM	5.75 µM	23.6	> 100 µM
O=C1c2ccccc2-c2c1c1ccc([N+](=O)[O-])cc1c(=O)n2CCCn1ccnc1	0.106 µM	0.453 µM	1.55 µM	5.98 µM	0.0153 µM	0.0378 µM		0.529 µM	0.886 µM	5.16 µM	1.06	3.15 µM		0.704 µM	< 0.019 µM	0.104 µM	1.09 µM	3.84 µM	0.172	0.807 µM
Clc1ccc(COC(Cn2ccnc2)c2ccc(Cl)cc2Cl)c(Cl)c1 (stereo unspecified)	3.73 µM	14.1 µM and 26.6 µM and 22.4 µM	2.39 µM	6.89 µM and 13 µM and 9.97 µM	2.63 µM	11.7 µM and 27.1 µM and 20.7 µM	4.34 µM	17.5 µM and 29.9 µM and 28.8 µM		21.2 µM and 16.4 µM	3.94	14.6 µM and 24.8 µM and 26.6 µM	4.51 µM	16.1 µM and 30.1 µM and 24.6 µM			2.34 µM	6.21 µM and 17 µM and 7.02 µM	3.18	12.9 µM and 26.8 µM and 23.4 µM
O=C(Nc1ccc(N2CCNCC2)cn1)c1[nH]ncc1Nc1ncnc2sccc12	1.86 µM	3.65 µM	1.59 µM	3.12 µM	4.27 µM	18.8 µM	1.54 µM	3.19 µM			8.3	> 100 µM	2.17 µM	5.33 µM	1.71 µM	3.26 µM	2.99 µM	22.6 µM	3.89	> 100 µM
